Values quoted from earlier work in patent publication US6620446B2, “Antibacterial composition for control of gram positive bacteria in food applications” (Rhodia, Inc., priority 2000, dated 2003).

System: L. monocytogenes
Conditions: reported by M. Doyle, Food Technology 1988

Substance: nisin
- initial inhibition of the organism's growth, duration: about 12 hours
